Entries after “also recorded” stand apart in the source; their conditions may differ.

Experimental findings from patent US9157069B2, “Method of producing pancreatic hormone-producing cells” (Takeda Pharmaceutical Company Limited, priority 2010, dated 2015) are described below.

Experiment [1] relates to human iPS cells. Description: Differentiation of human iPS cells into pancreatic hormone-producing cells on BD Matrigel or fibronectin substrate, time-course expression of differentiation markers. Particulars: substrate for endoderm induction, 100 mm dish coating diluted 40-fold. The class given is cell-based. The method, then: First, human iPS cells maintained in the state of a cell mass were dissociated until they formed singulated cells in the same manner as in Example 1. Then, human iPS cells dispersed in a medium were seeded at a density of 60×10^4 cells per one 100 mm dish coated with fibronectin (Invitrogen), and cultured at 37° C., 5% CO2 for 1 day. The 100 mm dish used was one coated with fibronectin diluted 40-fold with serum-free DMEM/F12 medium (Invitrogen), at room temperature for 3 hr or longer. (indicated as “fibronectin” in FIG. 7) Human iPS cells dispersed in a medium were seeded at a density of 15×10^4 cells per one 100 mm dish coated with BD Matrigel (Nippon Becton Dickinson Company, Ltd.), and cultured at 37° C., 5% CO2 for 1 day. The 100 mm dish used was one coated with BD Matrigel diluted 40-fold with serum-free DMEM/F12 medium (Invitrogen), at room temperature for 3 hr or longer. (indicated as “Matrigel” in FIG. 7) As a medium for dispersion and seeding was a medium for primate ES cell (ReproCELL Inc.) added with 10 μM Y-27632 (Wako Pure Chemical Industries, Ltd.). One day after seeding, the medium was exchanged with DMEM/F12 medium containing a GSK3β inhibitor CHIR99021 (3 μM) and 2% B-27 supplement (GIBCO) and cultured for 2 days. Then the medium was exchanged with DMEM/F12 medium containing activin A (50 ng/ml) and CHIR99021 (1 μM) and cultured for 2 days.

In experiment [2] the test system is human iPS cells. Nature of the experiment: Endoderm induction of human iPS cells, SOX17 gene expression by quantitative RT-PCR. The class given is cell-based. Particulars: GSK3 inhibitor (CHIR99021 3 μM or BIO 0.5 μM) with activin A 100 ng/ml, after 2 days in CHIR99021 3 μM; from day 4 of culture. The procedure: To the human iPS cells sedimented in the centrifuge tube, 0.25% trypsin-1 mM EDTA solution (GIBCO) was added, and allowed to dissociate until they form singulated cells. Then, human iPS cells dispersed in a medium were seeded at a density of 15×10^4 cells per one 100 mm dish coated with BD Matrigel (Nippon Becton Dickinson Company, Ltd.), and cultured at 37° C., 5% CO2 for 1 day. The 100 mm dish used was one coated with BD Matrigel diluted 40-fold with serum-free DMEM/F12 medium (Invitrogen), at room temperature for 3 hr or longer. As a medium for dispersion and seeding was a medium for primate ES cell (ReproCELL Inc.) added with 10 μM Y-27632 (Wako Pure Chemical Industries, Ltd.). […]
To examine variation in the expression of endoderm differentiation markers when human iPS cells were cultured, the cells after differentiation induction were recovered over time, and total RNA fraction was purified using RNeasy96 (Qiagen). cDNA was synthesized using PrimeScriptRT reagent kit (Takara Bio Inc.), quantitative RT-PCR was performed, and the gene expression level of a primitive streak marker Brachyury, and an endoderm marker SOX17 was measured. […]
The level of the gene expression of SOX17 when human iPS cells were cultured was measured over time. […]

On to fibronectin, for which the “time-course variation in the expression of differentiation markers (SOX17, PDX1, NGN3, insulin), compared between substrates” value in the experiment on human iPS cells [1] is listed as “almost the same”.
As to `Cc1c[nH]c(-c2cnc(NCCNc3ccc(C#N)cn3)nc2-c2ccc(Cl)cc2Cl)n1` [CHIR99021, 6-[[2-[[4-(2,4-dichlorophenyl)-5-(4-methyl-1H-imidazol-2-yl)-2-pyrimidinyl]amino]ethyl]amino]nicotinonitrile], the “expression level of SOX17 (relative to GAPDH)” value in the experiment with human iPS cells [2] is recorded as “remarkably increased; also recorded: increased over time”.
For `O=C1Nc2cc(Br)ccc2/C1=C1/Nc2ccccc2/C1=N\O` [BIO, (2′Z,3′E)-6-bromoindirubin-3′-oxime], the “expression level of SOX17 (relative to GAPDH)” value in the experiment with human iPS cells [2] is recorded as “remarkably increased; also recorded: increased over time”.
